Columns and labels:
Format in all cases: in vivo, male Wistar rats
[1] = test system: DEN-induced hepatic neoplasia in rats; test: Liver gross examination and number of liver nodules
Method: (§1) A modified version of the protocol described by DePeralta et al. (2016) and Schiffer et al. (2005) was used here to establish the hepatocarcinogenesis model.
(§2) On the first 15 weeks, the control PBS group was treated with 1×PBS, whereas the experimental groups were given an intraperitoneal injection (IP) of 50 mg/kg of diethylnitrosoamine (DEN, Sigma Aldrich), a widely used chemical for inducing cancer, once a week. DEN was diluted with 1×PBS. Following a one-week break (week 16), the next three weeks (weeks 17 to 19) of treatment commenced. All drugs were administrated by oral gavage. […] For the HCC+sorafenib group, the drug (Carbosynth Limited) was administered at a dose of 10 mg/kg, five days a week. For the HCC+safranal group, the drug (Sigma Aldrich) was administered at a dose of 200 mg/kg, five days a week. For the HCC+safranal+sorafenib group, the drugs were administered at a dose of 200 mg/kg safranal+10 mg/kg sorafenib, five days a week. Both safranal and sorafenib were diluted with 1×PBS and drops of Tween 80. […] After 24-hours from last treatment, the rats were euthanized by mild diethyl ether and dissected in equal conditions. Blood and whole liver were collected.

[2] = test system: DEN-induced hepatic neoplasia in rats; test: Reticulin staining of liver sections; details: reticulin-stained sections; FIG. 6
Method: as §1
(§3) On the first 15 weeks, the control PBS group was treated with 1×PBS, whereas the experimental groups were given an intraperitoneal injection (IP) of 50 mg/kg of diethylnitrosoamine (DEN, Sigma Aldrich), a widely used chemical for inducing cancer, once a week. DEN was diluted with 1×PBS. Following a one-week break (week 16), the next three weeks (weeks 17 to 19) of treatment commenced. All drugs were administrated by oral gavage. All doses were chosen according to literature (Alsaied et al., 2014; Karafakioğlu et al., 2017). For the HCC+sorafenib group, the drug (Carbosynth Limited) was administered at a dose of 10 mg/kg, five days a week. For the HCC+safranal group, the drug (Sigma Aldrich) was administered at a dose of 200 mg/kg, five days a week. For the HCC+safranal+sorafenib group, the drugs were administered at a dose of 200 mg/kg safranal+10 mg/kg sorafenib, five days a week. Both safranal and sorafenib were diluted with 1×PBS and drops of Tween 80. […] After 24-hours from last treatment, the rats were euthanized by mild diethyl ether and dissected in equal conditions. Blood and whole liver were collected. […]

[3] = test system: DEN-induced hepatic neoplasia in rats; test: Histology (H&E), area of neoplastic foci (AHF); details: H&E sections; FIG. 5; P<0.05
Method: as §1, §3

[4] = test system: PCNA; test: Western blot of proliferation-related protein PCNA in liver; details: normalized to total protein, n=4, P<0.05, FIG. 7
Method: as §1
(§4) On the first 15 weeks, the control PBS group was treated with 1×PBS, whereas the experimental groups were given an intraperitoneal injection (IP) of 50 mg/kg of diethylnitrosoamine (DEN, Sigma Aldrich), a widely used chemical for inducing cancer, once a week. DEN was diluted with 1×PBS. Following a one-week break (week 16), the next three weeks (weeks 17 to 19) of treatment commenced. All drugs were administrated by oral gavage. All doses were chosen according to literature (Alsaied et al., 2014; Karafakioğlu et al., 2017). […]
(§5) One hundredth gm (10 mg) liver was homogenized using 200 μl RIPA buffer (Sigma Aldrich) mixed with 2 μl protease inhibitor and 2 μl phosphatase inhibitor (Sigma Aldrich), and centrifuged at 4° C., 15,000 rpm for 15 minutes. […] Protein concentration was measured by Pierce BCA Protein Assay Kit with Promega GloMax Discover. […] Band density and quantification was done using ImageJ (Amin et al., 2011). […]
(§6) Due to technical reasons, total protein was used in this study as the loading control instead of the other common markers like GAPDH, β-tubulin, and β-actin. […] Ten internal controls were used, and their expressions were determined using RT-PCR. […]

[5] = test system: DEN-induced hepatic neoplasia in rats; test: Serum ALT and AST biochemical analysis in DEN-induced HCC rats; details: P<0.05, one-way ANOVA, Tukey
Method: as §1
as §2, with “Blood and whole liver were collected.” left out
Alanine Transaminase (ALT), and Aspartate Aminotransferase (AST) assays were performed using commercial kits (Abcam), according to the protocol provided. ALT and AST activities were measured spectrophotometrically using Epoch by BioTek.

[6] = test system: Bcl-2, Bax, Pro-Caspase-9, Pro-Caspase-3, PARP; test: Western blot of intrinsic apoptosis-related proteins in liver
Method: as §1
On the first 15 weeks, the control PBS group was treated with 1×PBS, whereas the experimental groups were given an intraperitoneal injection (IP) of 50 mg/kg of diethylnitrosoamine (DEN, Sigma Aldrich), a widely used chemical for inducing cancer, once a week. DEN was diluted with 1×PBS. Following a one-week break (week 16), the next three weeks (weeks 17 to 19) of treatment commenced. All drugs were administrated by oral gavage. All doses were chosen according to literature (Alsaied et al., 2014; Karafakioğlu et al., 2017). For the HCC+sorafenib group, the drug (Carbosynth Limited) was administered at a dose of 10 mg/kg, five days a week. For the HCC+safranal group, the drug (Sigma Aldrich) was administered at a dose of 200 mg/kg, five days a week. For the HCC+safranal+sorafenib group, the drugs were administered at a dose of 200 mg/kg safranal+10 mg/kg sorafenib, five days a week. Both safranal and sorafenib were diluted with 1×PBS and drops of Tween 80. […] After 24-hours from last treatment, the rats were euthanized by mild diethyl ether and dissected in equal conditions. Blood and whole liver were collected.
One hundredth gm (10 mg) liver was homogenized using 200 μl RIPA buffer (Sigma Aldrich) mixed with 2 μl protease inhibitor and 2 μl phosphatase inhibitor (Sigma Aldrich), and centrifuged at 4° C., 15,000 rpm for 15 minutes. Whole cell lysate was taken and stored at −80° C. Protein concentration was measured by Pierce BCA Protein Assay Kit with Promega GloMax Discover. A total of 35 μg of protein was loaded on a sodium dodecyl sulfate-polyacrylamide gel electrophoresis gel. […] Band density and quantification was done using ImageJ (Amin et al., 2011). […]
as §6

[7] = test system: Cdk1, Cyclin B1, Cdc25B; test: Western blot of cell cycle-related proteins in liver
Method: as §1, §4, §5, §6

CC1=C(C=O)C(C)(C)CC=C1 [safranal, 2,6,6-trimethyl-1,3-cyclohexadiene-1-carboxaldehyde]
lesions comparing to treatment with sorafenib alone ([1]; FIG. 3): dramatically decreased lesions
number of liver nodules / lesions comparing to HCC animals ([1]; week 20, FIG. 2, FIG. 3): reduced lesions
reticular fibers' breakage and morphology comparing to HCC group [2]: reduced reticular fibers' breakage and restored their morphology
area of neoplastic foci / restoration of normal liver architecture [3]: seems to enhance (P<0.05) the restoration of the normal architecture of the liver
PCNA expression [4]: significantly downregulated PCNA
ALT levels as compared to HCC group [5]: significantly (P<0.05) decreased ALT levels
expression of the anti-apoptotic protein Bcl-2 compared to HCC groups ([6]; FIG. 10, FIG. 11): significantly (P<0.05) decreased
expression of the pro-apoptotic protein Bax compared to HCC groups ([6]; FIG. 10, FIG. 11): significantly (P<0.05) increased
expression of pro-caspases-9 & 3 and whole PARP compared to HCC group ([6]; P<0.05, FIG. 12): significantly decreased
Cdk1, cyclin B1, Cdc25B decrease versus sorafenib alone ([7]; FIG. 9): showed a greater decrease than treatment with sorafenib alone
Cdk1, cyclin B1, Cdc25B levels comparing to HCC animals ([7]; P<0.05, FIG. 8, FIG. 9): significantly decreased their levels

From US10568873B1, “Safranal-sorafenib combination therapy for liver cancer” (United Arab Emirates University, priority 2019, dated 2020)
